Source: patent publication US8288435B2, “2-aza-bicyclo[3.1.0]hexane derivatives as orexin receptor antagonists” (Actelion Pharmaceuticals Ltd., priority 2006, dated 2012)

Key:
human orexin-1 receptor = molecular target: T1, human orexin-1 receptor (Homo sapiens, UniProt O43613); experiment: Intracellular calcium measurements (FLIPR), orexin receptor antagonistic activity, OX1; type: cell-based; conditions: CHO cells expressing the human orexin-1 receptor, 10 nM orexin-A as agonist
T1 construct: expressed in transfected cells; host or cells: CHO (Chinese hamster ovary) cells, G418 selection
T1 sequence (O43613 1-425): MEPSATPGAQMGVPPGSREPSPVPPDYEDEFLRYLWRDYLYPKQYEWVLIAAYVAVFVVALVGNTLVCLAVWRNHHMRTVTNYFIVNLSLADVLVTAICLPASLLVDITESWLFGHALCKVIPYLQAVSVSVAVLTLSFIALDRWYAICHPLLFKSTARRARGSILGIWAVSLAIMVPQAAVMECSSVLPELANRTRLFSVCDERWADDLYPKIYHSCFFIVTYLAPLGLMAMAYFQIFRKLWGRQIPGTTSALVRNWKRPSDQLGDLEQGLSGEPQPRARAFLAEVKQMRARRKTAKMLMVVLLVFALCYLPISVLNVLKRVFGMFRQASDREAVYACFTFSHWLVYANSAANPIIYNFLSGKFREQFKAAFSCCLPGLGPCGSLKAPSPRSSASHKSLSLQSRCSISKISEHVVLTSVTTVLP
Protocol: (§1) The orexin receptor antagonistic activity of the compounds of formula (I) is determined in accordance with the following experimental method.
(§2) Intracellular Calcium Measurements:
(§3) Chinese hamster ovary (CHO) cells expressing the human orexin-1 receptor and the human orexin-2 receptor, respectively, are grown in culture medium (Ham F-12 with L-Glutamine) containing 300 μg/ml G418, 100 U/ml penicillin, 100 μg/ml streptomycin and 10% inactivated fetal calf serum (FCS). The cells are seeded at 80′000 cells/well into 96-well black clear bottom sterile plates (Costar) which have been precoated with 1% gelatine in Hanks' Balanced Salt Solution (HBSS). All reagents are from Gibco BRL. The seeded plates are incubated overnight at 37° C. in 5% CO2.
(§4) Human orexin-A as an agonist is prepared as 1 mM stock solution in MeOH:water (1:1), diluted in HBSS containing 0.1% bovine serum albumin (BSA) and 2 mM HEPES for use in the assay at a final concentration of 10 nM.
(§5) Antagonists are prepared as 10 mM stock solution in DMSO, then diluted in 96-well plates, first in DMSO, then in HBSS containing 0.1% bovine serum albumin (BSA) and 2 mM HEPES.
(§6) On the day of the assay, 100 μl of loading medium (HBSS containing 1% FCS, 2 mM HEPES, 5 mM probenecid (Sigma) and 3 μM of the fluorescent calcium indicator fluo-3 AM (1 mM stock solution in DMSO with 10% pluronic acid) (Molecular Probes) is added to each well.
(§7) The 96-well plates are incubated for 60 min at 37° C. in 5% CO2. The loading solution is then aspirated and cells are washed 3 times with 200 μl HBSS containing 2.5 mM probenecid, 0.1% BSA, 2 mM HEPES. 100 μl of that same buffer is left in each well.
(§8) Within the Fluorescent Imaging Plate Reader (FLIPR, Molecular Devices), antagonists are added to the plate in a volume of 50 μl, incubated for 20 min and finally 100 μl of agonist is added. Fluorescence is measured for each well at 1 second intervals, and the height of each fluorescence peak is compared to the height of the fluorescence peak induced by 10 nM orexin-A with buffer in place of antagonist. For each antagonist, IC50 value (the concentration of compound needed to inhibit 50% of the agonistic response) is determined.

human orexin-2 receptor = molecular target: T2, human orexin-2 receptor (Homo sapiens, UniProt O43614); experiment: Intracellular calcium measurements (FLIPR), orexin receptor antagonistic activity, OX2; type: cell-based; conditions: CHO cells expressing the human orexin-2 receptor, 10 nM orexin-A as agonist
T2 construct: expressed in transfected cells; host or cells: CHO (Chinese hamster ovary) cells, G418 selection
T2 sequence (O43614 1-444): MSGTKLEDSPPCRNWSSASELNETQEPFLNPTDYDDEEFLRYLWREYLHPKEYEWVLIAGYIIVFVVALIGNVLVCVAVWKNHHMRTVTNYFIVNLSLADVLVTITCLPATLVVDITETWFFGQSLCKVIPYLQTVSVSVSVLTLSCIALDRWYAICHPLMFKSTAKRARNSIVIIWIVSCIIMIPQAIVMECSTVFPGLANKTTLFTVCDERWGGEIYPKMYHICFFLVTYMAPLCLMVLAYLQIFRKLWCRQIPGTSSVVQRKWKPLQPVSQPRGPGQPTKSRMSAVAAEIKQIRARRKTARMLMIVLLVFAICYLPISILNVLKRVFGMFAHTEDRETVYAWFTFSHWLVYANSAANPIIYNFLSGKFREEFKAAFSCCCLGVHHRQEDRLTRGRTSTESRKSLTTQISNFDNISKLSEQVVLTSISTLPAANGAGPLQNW
Protocol: as §1, §2, §3, §4, §5, §6, §7, §8

Row | IC50 (human orexin-1 receptor) [nM] | IC50 (human orexin-2 receptor) [nM] | Structure (SMILES)
1 | 58 | 34 | O=C(NC[C@@H]1C[C@@H]2C[C@@H]2N1C(=O)c1nc(C2CC2)sc1-c1ccccc1F)c1cccc2c1CCO2 [Example 208, 2,3-Dihydro-benzofuran-4-carboxylic acid {(1S,3S,5S)-2-[2-cyclopropyl-5-(2-fluoro-phenyl)-thiazole-4-carbonyl]-2-aza-bicyclo[3.1.0]hex-3-ylmethyl}-amide]
2 | 80 | 14 | Nc1nc(C(=O)N2[C@H](CNC(=O)c3cccc4c3OCCO4)C[C@@H]3C[C@@H]32)c(-c2cccc(F)c2)s1 [Example 25, 2,3-dihydro-benzo[1,4]dioxine-5-carboxylic acid {(1S,3S,5S)-2-[2-amino-5-(3-fluoro-phenyl)-thiazole-4-carbonyl]-2-aza-bicyclo[3.1.0]hex-3-ylmethyl}-amide]
3 | 76 | 129 | Cc1cccc(-c2sc(C)nc2C(=O)N2[C@H](CNC(=O)c3cccc4c3OCCN4C)C[C@@H]3C[C@@H]32)c1 [Example 130, 4-Methyl-3,4-dihydro-2H-benzo[1,4]oxazine-8-carboxylic acid [(1S,3S,5S)-2-(2-methyl-5-m-tolyl-thiazole-4-carbonyl)-2-aza-bicyclo[3.1.0]hex-3-ylmethyl]-amide]
4 | 7 | 24 | Cc1cccc(-c2sc(C)nc2C(=O)N2[C@H](CNC(=O)c3c(C)nc4sccn34)C[C@@H]3C[C@@H]32)c1 [Example 11, 6-methyl-imidazo[2,1-b]thiazole-5-carboxylic acid [(1S,3S,5S)-2-(2-methyl-5-m-tolyl-thiazole-4-carbonyl)-2-aza-bicyclo[3.1.0]hex-3-ylmethyl]-amide]
5 | 45 | 78 | O=C(NC[C@@H]1C[C@@H]2C[C@@H]2N1C(=O)c1ccccc1-c1cccc(Cl)c1)c1cccc2occc12 [Example 8, benzofuran-4-carboxylic acid [(1S,3S,5S)-2-(3′-chloro-biphenyl-2-carbonyl)-2-aza-bicyclo[3.1.0]hex-3-ylmethyl]-amide]
6 | 42 | 154 | CCc1cnc(NC[C@@H]2C[C@@H]3C[C@@H]3N2C(=O)c2nc(C)sc2-c2cccc(C)c2)nc1 [Example 277, {(1S,3S,5S)-3-[(5-Ethyl-pyrimidin-2-ylamino)-methyl]-2-aza-bicyclo[3.1.0]hex-2-yl}-(2-methyl-5-m-tolyl-thiazol-4-yl)-methanone]
7 | 37 | 291 | Cc1cc(C)cc(-c2sc(C)nc2C(=O)N2[C@H](CNc3ncc(Br)cn3)C[C@@H]3C[C@@H]32)c1 [Example 255, {(1S,3S,5S)-3-[(5-Bromo-pyrimidin-2-ylamino)-methyl]-2-aza-bicyclo[3.1.0]hex-2-yl}-[5-(3,5-dimethyl-phenyl)-2-methyl-thiazol-4-yl]-methanone]
8 | 20 | 44 | Cc1nc2sccn2c1C(=O)NC[C@@H]1C[C@@H]2C[C@@H]2N1C(=O)c1nc(N(C)C)sc1-c1ccccc1 [Example 246, 6-Methyl-imidazo[2,1-b]thiazole-5-carboxylic acid [(1S,3S,5S)-2-(2-dimethylamino-5-phenyl-thiazole-4-carbonyl)-2-aza-bicyclo[3.1.0]hex-3-ylmethyl]-amide]
9 | 110 | 98 | Cc1cccc(-c2sc(C)nc2C(=O)N2[C@H](CNc3nccc(C(F)(F)F)n3)C[C@@H]3C[C@@H]32)c1 [Example 274, (2-Methyl-5-m-tolyl-thiazol-4-yl)-{(1S,3S,5S)-3-[(4-trifluoromethyl-pyrimidin-2-ylamino)-methyl]-2-aza-bicyclo[3.1.0]hex-2-yl}-methanone]
10 | 110 | 35 | Cc1nc(C(=O)N2[C@H](CNC(=O)c3cccc4c3CCO4)C[C@@H]3C[C@@H]32)c(-c2ccc(Br)cc2)s1 [Example 192, 2,3-Dihydro-benzofuran-4-carboxylic acid {(1S,3S,5S)-2-[5-(4-bromo-phenyl)-2-methyl-thiazole-4-carbonyl]-2-aza-bicyclo[3.1.0]hex-3-ylmethyl}-amide]
11 | 12 | 11 | Nc1nc(C(=O)N2[C@H](CNC(=O)c3cnc4sccn34)C[C@@H]3C[C@@H]32)c(-c2cccc(F)c2)s1 [Example 57, imidazo[2,1-b]thiazole-5-carboxylic acid {(1S,3S,5S)-2-[2-amino-5-(3-fluoro-phenyl)-thiazole-4-carbonyl]-2-aza-bicyclo[3.1.0]hex-3-ylmethyl}-amide]
12 | 62 | 145 | Cc1nc(C(=O)N2[C@H](CNc3ncc(Br)cn3)C[C@@H]3C[C@@H]32)c(-c2ccc(F)c(F)c2)s1 [Example 259, {(1S,3S,5S)-3-[(5-Bromo-pyrimidin-2-ylamino)-methyl]-2-aza-bicyclo[3.1.0]hex-2-yl}-[5-(3,4-difluoro-phenyl)-2-methyl-thiazol-4-yl]-methanone]
13 | 129 | 94 | Cc1cccc(-c2sc(N)nc2C(=O)N2[C@H](CNC(=O)c3c(C)noc3C)C[C@@H]3C[C@@H]32)c1 [Example 33, 3,5-dimethyl-isoxazole-4-carboxylic acid [(1S,3S,5S)-2-(2-amino-5-m-tolyl-thiazole-4-carbonyl)-2-aza-bicyclo[3.1.0]hex-3-ylmethyl]-amide]
14 | 42 | 15 | CCn1cc(C(=O)NC[C@@H]2C[C@@H]3C[C@@H]3N2C(=O)c2nc(C)sc2-c2cccc(C)c2)c(C)n1 [Example 99, 1-Ethyl-3-methyl-1H-pyrazole-4-carboxylic acid [(1S,3S,5S)-2-(2-methyl-5-m-tolyl-thiazole-4-carbonyl)-2-aza-bicyclo[3.1.0]hex-3-ylmethyl]-amide]
15 | 62 | 57 | Cc1cccc(-c2sc(N)nc2C(=O)N2[C@H](CNC(=O)c3cccc(Br)c3)C[C@@H]3C[C@@H]32)c1 [Example 163, N-[(1S,3S,5S)-2-(2-Amino-5-m-tolyl-thiazole-4-carbonyl)-2-aza-bicyclo[3.1.0]hex-3-ylmethyl]-3-bromo-benzamide]
16 | 13 | 100 | Cc1nc(C(=O)N2[C@H](CNC(=O)c3cccc4cccnc34)C[C@@H]3C[C@@H]32)c(-c2ccccc2)s1 [Example 230, Quinoline-8-carboxylic acid [(1S,3S,5S)-2-(2-methyl-5-phenyl-thiazole-4-carbonyl)-2-aza-bicyclo[3.1.0]hex-3-ylmethyl]-amide]
17 | 51 | 74 | Cc1nc(C(=O)N2[C@H](CNC(=O)c3noc4ccccc34)C[C@@H]3C[C@@H]32)c(-c2cccc(Cl)c2)s1 [Example 147, Benzo[d]isoxazole-3-carboxylic acid {(1S,3S,5S)-2-[5-(3-chloro-phenyl)-2-methyl-thiazole-4-carbonyl]-2-aza-bicyclo[3.1.0]hex-3-ylmethyl}-amide]
18 | 88 | 452 | O=C(NC[C@@H]1C[C@@H]2C[C@@H]2N1C(=O)c1ncsc1-c1cccc(Cl)c1)c1cccc2cccnc12 [Example 235, Quinoline-8-carboxylic acid {(1S,3S,5S)-2-[5-(3-chloro-phenyl)-thiazole-4-carbonyl]-2-aza-bicyclo[3.1.0]hex-3-ylmethyl}-amide]
